From patent US20220370416A1, “COMPOUNDS AND METHODS FOR TARGETED DEGRADATION OF KRAS” (Arvinas Operations, Inc., priority 2020, published 2022)

Legend:
HiBit-KRAS^G12C [1] = molecular target: T1, HiBit-KRAS^G12C (Homo sapiens, UniProt P01116, G12C); test: HiBit degradation assay in MiaPaCa-2 HiBit-KRas^G12C cells; type: cell-based; details: 24 hours; for Dmax: maximum degradation
Outline: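 DC50 and Dmax come from 4-parameter fits of DMSO-normalized HiBit luminescence after 24 hours' exposure at 37° C to 10 μM–20 nM compound in 0.1% or 0.5% DMSO. Cells: MiaPaCa-2 carrying one endogenously HiBit-tagged KRAS^G12C allele; concentrations causing ≥50% […] viability loss (alamar blue) excluded.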

HiBit-KRAS^G12C [2] = molecular target: T1, HiBit-KRAS^G12C; test: HiBit degradation assay in SW1573 HiBit-KRas^G12C cells; type: cell-based; parameters: expressed in transfected cells; host or cells: SW1573 (clone E6), modified pcDNA3.1 vector, TK promoter; details: 24 hours
Outline: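 HiBit-KRAS G12C degradation was measured after a 24 h compound exposure (titrated 10 μM–20 nM) in engineered SW1573 cells. Lytic HiBit luminescence, expressed relative to DMSO controls, yielded DC50 and Dmax from 4-parameter fits. Concentrations causing ≥50% loss in alamar blue viability were omitted as cytotoxic.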

[3] = MIA PaCa-2, MiaPaCa-2 HiBit-KRas^G12C cells, 0.5% DMSO, read-out: KRas^G12C-HiBiT (MiaPaCa; 0.5% DMSO) DMax
[4] = read-out: KRas^G12C-HiBiT (MiaPaCa; 0.5% DMSO) IC50, MiaPaCa-2 HiBit-KRas^G12C cells, 0.5% DMSO
[5] = SW1573, SW1573 HiBit-KRas^G12C, 0.5% DMSO, read-out: KRas^G12C-HiBiT (SW1573; 0.5% DMSO) Dmax**
[6] = read-out: KRas^G12C-HiBiT (SW1573; 0.5% DMSO) IC50***, SW1573 HiBit-KRas^G12C, 0.5% DMSO
[7] = SW1573 HiBit-KRas^G12C, 0.1% DMSO, read-out: KRas^G12C-HIBit (SW1573; 0.1% DMSO) DC50*
[8] = SW1573, read-out: KRas^G12C-HiBit (SW1573; 0.1% DMSO) Dmax**, SW1573 HiBit-KRas^G12C, 0.1% DMSO

T1 sequence (P01116 1-186 isoform P01116-2 G12C limits assumed): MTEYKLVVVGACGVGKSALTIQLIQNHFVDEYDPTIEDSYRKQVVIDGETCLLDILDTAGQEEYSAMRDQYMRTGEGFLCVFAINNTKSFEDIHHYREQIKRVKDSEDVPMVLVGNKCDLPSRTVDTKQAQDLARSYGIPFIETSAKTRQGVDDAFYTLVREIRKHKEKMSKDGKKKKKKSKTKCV

Structure (SMILES)	Dmax (HiBit-KRAS^G12C [1]; [3])	DC50 (HiBit-KRAS^G12C [1]; [4])	Dmax (HiBit-KRAS^G12C [2]; [5])	DC50 (HiBit-KRAS^G12C [2]; [6])	DC50 (HiBit-KRAS^G12C [2]; [7])	also measured
C=CC(=O)N1CCN(c2nc(O[C@H](C)CN3CCC(COc4cc([C@H](C(=O)N5C[C@H](O)C[C@H]5C(=O)N[C@@H](C)c5ccc(-c6scnc6C)cc5)C(C)C)on4)CC3)nc3c(F)c(-c4cc(O)cc5ccccc45)c(Cl)cc23)C[C@@H]1CC#N [Compound 153, (2S,4R)-1-[(2R)-2-[3-({1-[(2R)-2-({6-chloro-4-[(3S)-3-(cyanomethyl)-4-(prop-2-enoyl)piperazin-1-yl]-8-fluoro-7-(3-hydroxynaphthalen-1-yl)quinazolin-2-yl}oxy)propyl]piperidin-4-yl}methoxy)-1,2-oxazol-5-yl]-3-methylbutanoyl]-4-hydroxy-N-[(1S)-1-[4-(4-methyl-1,3-thiazol-5-yl)phenyl]ethyl]pyrrolidine-2-carboxamide]	> 70%	100 to 1000 nM	> 70%	100 to 1000 nM		
C=C(F)C(=O)N1CCN(c2nc(OCCN3CCC(F)(COc4cc([C@H](C(=O)N5C[C@H](O)C[C@H]5C(=O)N[C@@H](C)c5ccc(-c6scnc6C)cc5)C(C)C)on4)CC3)nc3c(F)c(-c4cc(O)cc5ccccc45)c(Cl)cc23)C[C@@H]1CC#N (atropisomer, axis not shown) [Compound 121, (2S,4R)-1-[(2R)-2-[3-({1-[2-({6-chloro-4-[(3S)-3-(cyanomethyl)-4-(2-fluoroprop-2-enoyl)piperazin-1-yl]-8-fluoro-7-(3-hydroxynaphthalen-1-yl)quinazolin-2-yl}oxy)ethyl]-4-fluoropiperidin-4-yl}methoxy)-1,2-oxazol-5-yl]-3-methylbutanoyl]-4-hydroxy-N-[(1S)-1-[4-(4-methyl-1,3-thiazol-5-yl)phenyl]ethyl]pyrrolidine-2-carboxamide]	> 70%	100 to 1000 nM	35 to 70%	< 100 nM		
C=CC(=O)N1CCN(c2nc(O[C@H](C)CN3CCC(OCCOCC(=O)N[C@H](C(=O)N4C[C@@H](O)C[C@H]4C(=O)N[C@@H](C)c4ccc(-c5scnc5C)cc4)C(C)(C)C)CC3)nc3c(F)c(-c4cc(O)cc5ccccc45)c(Cl)cc23)CC1 [Compound 82, (2S,4S)-1-[(2S)-2-{2-[2-({1-[(2R)-2-{[6-chloro-8-fluoro-7-(3-hydroxynaphthalen-1-yl)-4-[4-(prop-2-enoyl)piperazin-1-yl]quinazolin-2-yl]oxy}propyl]piperidin-4-yl}oxy)ethoxy]acetamido}-3,3-dimethylbutanoyl]-4-hydroxy-N-[(1S)-1-[4-(4-methyl-1,3-thiazol-5-yl)phenyl]ethyl]pyrrolidine-2-carboxamide]	35 to 70%		< 35%		> 1000 nM	Dmax (HiBit-KRAS^G12C [1]; MIA PaCa-2, MiaPaCa-2 HiBit-KRas^G12C cells, 0.1% DMSO, read-out: KRas^G12C-HiBiT (MiaPaCa; 0.1% DMSO) DMax): 35 to 70%; Dmax (HiBit-KRAS^G12C [2]; SW1573, SW1573 HiBit-KRas^G12C, 0.1% DMSO, read-out: KRas^G12C-HiBit (SW1573; 0.1% DMSO) Dmax**): 35 to 70%
C=CC(=O)N1CCN(c2nc(OCCN3CCC4(CC3)CN(c3cc([C@@H](C(=O)N5C[C@H](O)C[C@H]5C(=O)N[C@@H](C)c5ccc(-c6scnc6C)cc5)C(C)C)on3)C4)nc3c(F)c(-c4cc(O)cc5ccccc45)c(Cl)cc23)C[C@@H]1CC#N (atropisomer, axis not shown) [Compound 108, (2S,4R)-1-[(2S)-2-(3-{7-[2-({6-chloro-4-[(3S)-3-(cyanomethyl)-4-(prop-2-enoyl)piperazin-1-yl]-8-fluoro-7-(3-hydroxynaphthalen-1-yl)quinazolin-2-yl}oxy)ethyl]-2,7-diazaspiro[3.5]nonan-2-yl}-1,2-oxazol-5-yl)-3-methylbutanoyl]-4-hydroxy-N-[(1S)-1-[4-(4-methyl-1,3-thiazol-5-yl)phenyl]ethyl]pyrrolidine-2-carboxamide]	< 35%	100 to 1000 nM		> 1000 nM		
C=C(F)C(=O)N1CCN(c2nc(OCCN3CCC(COc4cc([C@H](C(=O)N5C[C@H](O)C[C@H]5C(=O)N[C@@H](C)c5ccc(-c6scnc6C)cc5)C(C)C)on4)CC3)nc3c(F)c(-c4cc(O)cc5ccccc45)c(Cl)cc23)C[C@@H]1CC#N (atropisomer, axis not shown) [Compound 166, (2S,4R)-1-[(2R)-2-[3-({1-[2-({6-chloro-4-[(3S)-3-(cyanomethyl)-4-(2-fluoroprop-2-enoyl)piperazin-1-yl]-8-fluoro-7-(3-hydroxynaphthalen-1-yl)quinazolin-2-yl}oxy)ethyl]piperidin-4-yl}methoxy)-1,2-oxazol-5-yl]-3-methylbutanoyl]-4-hydroxy-N-[(1S)-1-[4-(4-methyl-1,3-thiazol-5-yl)phenyl]ethyl]pyrrolidine-2-carboxamide]		> 1000 nM		100 to 1000 nM		KRas^G12C-HiBiT (SW1573; 0.5% DMSO) Dmax** (HiBit-KRAS^G12C [2]; SW1573 HiBit-KRas^G12C, 0.5% DMSO): B (35 < B < 70)
C=CC(=O)N1CCN(c2nc(O[C@H](C)CN3CC(N4CCN(CC(=O)N[C@H](C(=O)N5C[C@H](O)C[C@H]5C(=O)N[C@@H](C)c5ccc(-c6scnc6C)cc5)C(C)(C)C)CC4)C3)nc3c(F)c(-c4cc(O)cc5ccccc45)c(Cl)cc23)CC1 [Compound 62, (2S,4R)-1-[(2S)-2-[2-(4-{1-[(2R)-2-{[6-chloro-8-fluoro-7-(3-hydroxynaphthalen-1-yl)-4-[4-(prop-2-enoyl)piperazin-1-yl]quinazolin-2-yl]oxy}propyl]azetidin-3-yl}piperazin-1-yl)acetamido]-3,3-dimethylbutanoyl]-4-hydroxy-N-[(1S)-1-[4-(4-methyl-1,3-thiazol-5-yl)phenyl]ethyl]pyrrolidine-2-carboxamide]					100 to 1000 nM	Dmax (HiBit-KRAS^G12C [1]; MIA PaCa-2, read-out: KRas^G12C-HiBiT (MiaPaCa; 0.1% DMSO) DMax, MiaPaCa-2 HiBit-KRas^G12C cells, 0.1% DMSO): < 35%; Dmax (HiBit-KRAS^G12C [2]; [8]): 35 to 70%
C=CC(=O)N1CCN(c2nc(OCCN3CCC4(CC3)CN(c3cc([C@@H](C(=O)N5C[C@H](O)C[C@H]5C(=O)N[C@@H](C)c5ccc(-c6ccnn6C)cc5)C(C)C)on3)C4)nc3c(F)c(-c4cc(O)cc5ccccc45)c(Cl)cc23)C[C@@H]1CC#N (atropisomer, axis not shown) [Compound 101, (2S,4R)-1-[(2S)-2-(3-{7-[2-({6-chloro-4-[(3S)-3-(cyanomethyl)-4-(prop-2-enoyl)piperazin-1-yl]-8-fluoro-7-(3-hydroxynaphthalen-1-yl)quinazolin-2-yl}oxy)ethyl]-2,7-diazaspiro[3.5]nonan-2-yl}-1,2-oxazol-5-yl)-3-methylbutanoyl]-4-hydroxy-N-[(1S)-1-[4-(1-methyl-1H-pyrazol-5-yl)phenyl]ethyl]pyrrolidine-2-carboxamide]		> 1000 nM		> 1000 nM		
C=CC(=O)N1CCN(c2nc(O[C@H](C)CN3CCC(OCCOC4CN(CC(=O)N[C@H](C(=O)N5C[C@H](O)C[C@H]5C(=O)N[C@@H](C)c5ccc(-c6scnc6C)cc5)C(C)(C)C)C4)CC3)nc3c(F)c(-c4cc(O)cc5ccccc45)c(Cl)cc23)CC1 [Compound 53, (2S,4R)-1-[(2S)-2-(2-{3-[2-({1-[(2R)-2-{[6-chloro-8-fluoro-7-(3-hydroxynaphthalen-1-yl)-4-[4-(prop-2-enoyl)piperazin-1-yl]quinazolin-2-yl]oxy}propyl]piperidin-4-yl}oxy)ethoxy]azetidin-1-yl}acetamido)-3,3-dimethylbutanoyl]-4-hydroxy-N-[(1S)-1-[4-(4-methyl-1,3-thiazol-5-yl)phenyl]ethyl]pyrrolidine-2-carboxamide]					100 to 1000 nM	DC50 (HiBit-KRAS^G12C [1]; read-out: KRas^G12C-HiBiT (MiaPaCa; 0.1% DMSO) IC50, MiaPaCa-2 HiBit-KRas^G12C cells, 0.1% DMSO): > 1000 nM; Dmax (HiBit-KRAS^G12C [2]; [8]): < 35%
C=CC(=O)N1CCN(c2nc(OCCN3CCC(CN(C)c4cc([C@H](C(=O)N5C[C@H](O)C[C@H]5C(=O)N[C@@H](C)c5ccc(-c6scnc6C)cc5)C(C)C)on4)CC3)nc3c(F)c(-c4cc(O)cc5ccccc45)c(Cl)cc23)C[C@@H]1CC#N [Compound 143, (2S,4R)-1-[(2R)-2-{3-[({1-[2-({6-chloro-4-[(3S)-3-(cyanomethyl)-4-(prop-2-enoyl)piperazin-1-yl]-8-fluoro-7-(3-hydroxynaphthalen-1-yl)quinazolin-2-yl}oxy)ethyl]piperidin-4-yl}methyl)(methyl)amino]-1,2-oxazol-5-yl}-3-methylbutanoyl]-4-hydroxy-N-[(1S)-1-[4-(4-methyl-1,3-thiazol-5-yl)phenyl]ethyl]pyrrolidine-2-carboxamide]	> 70%	100 to 1000 nM	> 70%	100 to 1000 nM		
